Read-outs that look alike come from different tables or passages of the source.
Key:
[1] = tested on: hair growth (skin of shaved rabbits); conditions: repeated injection into skin of shaved rabbits; cited from earlier work
[2] = tested on: hair growth (clipped patch of skin, upper back of male rats); assay: Measurement of hair growth using the rat model (cumulative clipped hair weight, topical application); assay type: in vivo
Protocol: The effect of compounds on hair growth was assessed using male rats as an animal model as follows. In each of the comparisons reported below, 10 rats were used.
A small patch of normal skin (4cm ×4cm) on the upper back of each rat was clipped at the start of the experiment and a hair growth stimulant composition (or a control) applied twice daily topically to the clipped area. Hair was clipped from the area of the patch twice weekly, collected and weighed at each time point, and cumulative hair weight calculated. […] A positive response, ie. an increase of at least 10% by weight of hair, compared with a control, indicates the potential of the test substance to prevent hair loss and/or reverse baldness in human subjects.
In this example, the effect of topical application of D-glucaro-1,4-lactone, an inhibitor of β-glucuronidaseis shown. The test solution in this experiment contained approximately 7% (w/v) of the glucarolactone in the form of an equilibrium mixture prepared from boiled calcium glucarate. The vehicle was 33% (v/v) ethanol containing 50mM Na citrate at pH 4.2. Test or control solutions (0.3ml) were applied twice-daily to the clipped site; the hair growth results are shown below in Table 2.
This effect is illustrated in Table 3 below, in which the vehicle was 33% v/v ethanol in 50mM sodium citrate, pH4.2:
In a further experiment, glucarolactone was tested in the presence of an activity enhancer, 1-methylpyrrolidone. Again, a significant increase in hair weight was obtained, as shown below in Table 4, in which the vehicle was 33% v/v aqueous ethanol containing 50mM Na citrate buffer pH4.2 and 10% w/v 1-methylpyrrolidone. […]

β-glucuronidase [3] = target: T1, β-glucuronidase (Homo sapiens, UniProt P08236); assay: Inhibition of β-glucuronidase activity (nitrophenyl glucuronide substrate, method of Dingle); assay type: biochemical; conditions: for inhibition of γ-glucuronidase activity (so in the source), in words: statement referring to experiments described later
T1 sequence (P08236 23-651): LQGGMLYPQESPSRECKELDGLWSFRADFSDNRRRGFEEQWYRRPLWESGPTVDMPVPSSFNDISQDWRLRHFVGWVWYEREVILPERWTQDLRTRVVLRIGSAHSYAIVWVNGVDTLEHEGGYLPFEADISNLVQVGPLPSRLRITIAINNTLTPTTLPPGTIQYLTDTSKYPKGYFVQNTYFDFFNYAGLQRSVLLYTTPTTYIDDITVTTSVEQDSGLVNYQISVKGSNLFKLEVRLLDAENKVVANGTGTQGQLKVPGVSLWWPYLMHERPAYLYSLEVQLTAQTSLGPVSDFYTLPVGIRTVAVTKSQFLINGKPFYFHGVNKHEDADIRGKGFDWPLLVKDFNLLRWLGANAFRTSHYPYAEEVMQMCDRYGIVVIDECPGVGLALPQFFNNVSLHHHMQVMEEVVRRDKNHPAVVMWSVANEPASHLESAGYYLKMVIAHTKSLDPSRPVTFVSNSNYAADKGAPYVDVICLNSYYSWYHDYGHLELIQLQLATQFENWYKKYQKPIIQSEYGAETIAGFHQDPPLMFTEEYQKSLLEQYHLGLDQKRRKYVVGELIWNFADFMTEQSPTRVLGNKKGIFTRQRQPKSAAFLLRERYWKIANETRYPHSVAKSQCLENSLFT
Protocol: In each of the assays referred to herein, the chemical inhibitor was tested at a pH close to the optimum pH value of the relevant enzyme, and under conditions of saturating substrate concentration, to ensure that Vmax was obtained in the controls. […] The activity of each of these four exoglycosidases was measured using a method described in "Lysosomes, A Laboratory Handbook", edited by […]., Second Edition, (1977) at page 118. […] [Ibid., page 118] as described herein. […] [Ibid., page 118]. The results when the acid or the lactone were incubated with a mixture of this enzyme and the nitrophenyl glucuronide substrate were as follow: […]

[4] = cited from earlier work
β-glucuronidase [5] = target: T1, β-glucuronidase; conditions: Levvy and Snaith (1972); cited from earlier work
α-glucuronidase = conditions: Levvy and Snaith (1972); cited from earlier work
hair growth = conditions: 1% solution, daily application for six months; cited from earlier work
[6] = Table 3, 7% glucarolactone, 0.2% minoxidil, or both, 45 days
[7] = Table 3, 7% glucarolactone, 0.2% minoxidil, or both, vehicle 33% v/v ethanol in 50mM sodium citrate, pH4.2, vehicle control 427.2 ± 58.7
[8] = read-out: percentage inhibition of a 1mM concentration, 1 mM, worked out from 1.03 or 1.14 mM

## chondroitin-6-sulphate
[1]
  initiation of the hair growth cycle with stimulation of hair growth, in words: also active in this respect, but to a lesser extent

## heparan sulphate
[1]
  initiation of the hair growth cycle with stimulation of hair growth, in words: particularly active

## Nc1cc(N2CCCCC2)nc(N)[n+]1[O-] [minoxidil, reference compound]
[2]; 2% (w/v) minoxidil vs vehicle, 45 days
  increase in hair growth: 55%
[2]; Table 1, 2% (w/v) topical twice daily, vehicle 70% ethanol, 20% water, 10% propylene glycol, vehicle control 387.3 ± 75.9
  Mean Cumulative hair weight (mg) ± sd, after 45 days: 599.2 ± 85.1 mg
[2]; [6]
  Increase in hair growth (%) (Test vs control): 9%
[2]; [7]
  Mean Cumulative hair weight (mg) ± sd, after 45 days: 465.8 ± 48.8 mg
β-glucuronidase [3]; 0.05 mg/ml (0.24 mM)
  inhibition at 50 µg/mL: 2%
β-glucuronidase [3]; 0.4 mg/ml (1.9 mM)
  inhibition at 400 µg/mL: 12%
β-glucuronidase [3]; 0.8 mg/ml (3.8 mM)
  inhibition at 800 µg/mL: 23%
β-glucuronidase [3]; 1 mM, β-glucuronidase
  enzyme inhibition in words (weak inhibitor): weak enzyme inhibitor
β-glucuronidase [3]; 1 mM, β-glucuronidase, read-out: enzyme inhibition in words (weak inhibitor)
  inhibition at 1000 µM: 5 to 50%
β-glucuronidase [3]; read-out: percent inhibition of a 1mM concentration
  inhibition at 1000 µM: 6%
[4]; oral
  side effects of orally administered minoxidil: fluid retention, tachycardia, dyspnea, gynecomastia, fatigue, nausea and cardiotoxicity
[4]; topical
  side effects following topical application: certain side effects have been experienced following topical application of minoxidil

## O=C[C@H](O)[C@H]1OC(=O)[C@@H](O)[C@H]1O [glucurono-6,3-lactone, D-Glucurono-6,3-lactone]
β-glucuronidase [3]; 0.2 mg/ml (1.14 mM)
  inhibition at 200 µg/mL: 51%
β-glucuronidase [3]; 1 mM, β-glucuronidase
  enzyme inhibition in words (weak inhibitor): weak enzyme inhibitors
β-glucuronidase [3]; [8]
  inhibition at 1000 µM: 44.7%
β-glucuronidase [3]
  inhibition of γ-glucuronidase activity (so in the source), in words: weak inhibitors

## O=C[C@H](O)[C@@H](O)[C@H](O)[C@H](O)C(=O)O [glucuronic acid, D-glucuronic acid]
β-glucuronidase [3]; 0.2 mg/ml (1.03 mM)
  inhibition at 200 µg/mL: 20%
β-glucuronidase [3]; 1 mM, β-glucuronidase
  enzyme inhibition in words (weak inhibitor): weak enzyme inhibitors
β-glucuronidase [3]; [8]
  inhibition at 1000 µM: 19.4%
β-glucuronidase [3]
  inhibition of γ-glucuronidase activity (so in the source), in words: weak inhibitors
β-glucuronidase [5]
  inhibition of β-glucuronidase, in words: feebly inhibited
α-glucuronidase
  inhibition of α-glucuronidase, in words: feebly inhibited
Hair growth
  regrowth of hair, in words: regrowth of hair

## zinc gluconate
[2]; 2% (w/v) zinc gluconate, 45 days (Table 6)
  increase in hair growth: 16%
[2]; Table 6, 2% (w/v), vehicle 20% aqueous ethanol, vehicle control 397.8 ± 56.3
  Mean Cumulative hair weight (mg) ± sd, after 45 days: 460.9 ± 45.7 mg

## dermatan sulphate
[1]
  initiation of the hair growth cycle with stimulation of hair growth, in words: also active in this respect, but to a lesser extent

## O=C(O)[C@@H](O)[C@H]1OC(=O)[C@H](O)[C@H]1O [glucarolactone, D-glucaro-1,4-lactone]
[2]; 7% glucarolactone vs vehicle, Table 2
  stimulation of hair growth (increase): 13%
[2]; 7% glucarolactone with 0.1% w/v Triton X-100, 43 days (Table 5)
  increase in hair growth: 39%
[2]; 7% glucarolactone with 10% w/v 1-methylpyrrolidone, 46 days (Table 4)
  increase in hair growth: 15%
[2]; Table 2, approx. 7% (w/v), 0.3 ml twice daily, vehicle 33% (v/v) ethanol, 50mM Na citrate pH 4.2, vehicle control 427.2 ± 58.7
  Mean Cumulative hair weight (mg) ± sd, after 45 days: 482.7 ± 58.4 mg
[2]; [6]
  Increase in hair growth (%) (Test vs control): 13%
[2]; [7]
  Mean Cumulative hair weight (mg) ± sd, after 45 days: 482.7 ± 58.4 mg
[2]; Table 4, 7%, vehicle 33% v/v aqueous ethanol, 50mM Na citrate pH4.2, 10% w/v 1-methylpyrrolidone, vehicle control 611.1 ± 48.1
  Mean Cumulative Hair Weight (mg) ± sd, after 46 days: 706.2 ± 86.6 mg
[2]; Table 5, 7%, vehicle 20% v/v ethanol, 50mM sodium citrate pH4.2, 0.1% w/v Triton X-100, vehicle control 412.3 ± 57.5
  Mean Cumulative Hair Weight (mg) ± sd, after 43 days: 573.3 ± 82.5 mg
[2]; result in words
  effect on hair growth in combination with a low concentration of minoxidil: synergistic effect on hair growth in combination with a low concentration of minoxidil
  effect on onset of anagen / hair cycle: consistently found to advance the onset of anagen, thus reducing the amount of time spent in the resting stage of hair cycle
